# Laboratory results reported in paper PMC5218480 (PLoS ONE, 2017).
# Test system: MV-4-11 cells
# Test: Gene expression microarray analysis (Affymetrix PrimeView) and GSEA
# Type: cell-based, human
# Parameters: RFU PODN (11730768_x_at) / Fold change /veh PODN (11730768_x_at) / RFU LINC00158 (11744669_a_at) / Fold change /veh LINC00158 (11744669_a_at) / RFU DUSP10 (11751237_a_at) / Fold change /veh DUSP10 (11751237_a_at) / RFU ID3 (11757404_x_at) / Fold change /veh ID3 (11757404_x_at) / RFU PLEKHG5 (11737974_s_at) / Fold change /veh PLEKHG5 (11737974_s_at) / RFU LRRC4B (11730491_at) / Fold change /veh LRRC4B (11730491_at) / RFU GIMAP4 (11747438_a_at) / Fold change /veh GIMAP4 (11747438_a_at) / RFU KRT8 (11758183_x_at) / Fold change /veh KRT8 (11758183_x_at) / RFU CNN1 (11734310_a_at) / Fold change /veh CNN1 (11734310_a_at) / RFU VPS37D (11726825_at) / Fold change /veh VPS37D (11726825_at) / RFU C10orf10 (11716522_x_at) / Fold change /veh C10orf10 (11716522_x_at) / RFU KIR2DL2 /// KIR2DL4 /// KIR2DL5A /// KIR2DL5B /// KIR2DS1 /// KIR2DS2 /// KIR2DS3 /// KIR2DS4 /// KIR3DL3 /// KIR3DL3 /// KIR3DS1 (11738374_at) / Fold change /veh KIR2DL2 /// KIR2DL4 /// KIR2DL5A /// KIR2DL5B /// KIR2DS1 /// KIR2DS2 /// KIR2DS3 /// KIR2DS4 /// KIR3DL3 /// KIR3DL3 /// KIR3DS1 (11738374_at) / RFU C1QL1 (11718748_at) / Fold change /veh C1QL1 (11718748_at) / RFU TMPRSS4 (11747572_a_at) / Fold change /veh TMPRSS4 (11747572_a_at) / RFU HAMP (11756126_x_at) / Fold change /veh HAMP (11756126_x_at) / RFU RNFT2 (11725882_a_at) / Fold change /veh RNFT2 (11725882_a_at) / RFU NR4A2 (11747474_a_at) / Fold change /veh NR4A2 (11747474_a_at) / RFU ABCC12 (11746883_a_at) / Fold change /veh ABCC12 (11746883_a_at) / RFU TMEM136 (11760407_x_at) / Fold change /veh TMEM136 (11760407_x_at) / RFU CLDN22 /// WWC2 (11732394_at) / Fold change /veh CLDN22 /// WWC2 (11732394_at) / RFU HLA-DPB1 (11760878_x_at) / Fold change /veh HLA-DPB1 (11760878_x_at) / RFU SPINT1 (11716480_a_at) / Fold change /veh SPINT1 (11716480_a_at) / RFU GAP43 (11754022_s_at) / Fold change /veh GAP43 (11754022_s_at) / RFU A4GNT (11735810_at) / Fold change /veh A4GNT (11735810_at) / RFU PRB3 (11715151_x_at) / Fold change /veh PRB3 (11715151_x_at) / RFU TUBB4B (11761932_at) / Fold change /veh TUBB4B (11761932_at) / RFU CAPN14 (11732068_a_at) / Fold change /veh CAPN14 (11732068_a_at) / RFU TMCC2 (11721928_a_at) / Fold change /veh TMCC2 (11721928_a_at) / RFU IRGQ (11745062_a_at) / Fold change /veh IRGQ (11745062_a_at) / RFU FAM174B (11720279_a_at) / Fold change /veh FAM174B (11720279_a_at) / RFU TMPRSS4 (11748680_a_at) / Fold change /veh TMPRSS4 (11748680_a_at) / RFU FAM212B (11763350_a_at) / Fold change /veh FAM212B (11763350_a_at) / RFU PLEKHG5 (11743358_a_at) / Fold change /veh PLEKHG5 (11743358_a_at) / RFU ZSCAN30 (11745921_a_at) / Fold change /veh ZSCAN30 (11745921_a_at) / RFU CMKLR1 (11741424_a_at) / Fold change /veh CMKLR1 (11741424_a_at) / RFU LOC101060620 /// MAPK8IP1 (11723275_at) / Fold change /veh LOC101060620 /// MAPK8IP1 (11723275_at) / RFU SPTSSB (11747773_x_at) / Fold change /veh SPTSSB (11747773_x_at) / RFU PRSS12 (11739890_at) / Fold change /veh PRSS12 (11739890_at) / RFU BIN1 (11741810_x_at) / Fold change /veh BIN1 (11741810_x_at) / RFU WNT11 (11732464_a_at) / Fold change /veh WNT11 (11732464_a_at) / RFU C10orf10 (11716521_a_at) / Fold change /veh C10orf10 (11716521_a_at) / RFU C5orf56 (11738089_at) / Fold change /veh C5orf56 (11738089_at) / RFU CYB561 (11721691_x_at) / Fold change /veh CYB561 (11721691_x_at) / RFU ANKRD19P (11752326_a_at) / Fold change /veh ANKRD19P (11752326_a_at) / RFU OR2T12 /// OR2T33 /// OR2T8 (11738714_s_at) / Fold change /veh OR2T12 /// OR2T33 /// OR2T8 (11738714_s_at) / RFU VCAN (11748164_a_at) / Fold change /veh VCAN (11748164_a_at) / RFU JSRP1 (11732532_at) / Fold change /veh JSRP1 (11732532_at) / RFU KRTAP10-11 (11738290_x_at) / Fold change /veh KRTAP10-11 (11738290_x_at) / RFU MYO3A (11730013_a_at) / Fold change /veh MYO3A (11730013_a_at) / RFU EBF3 (11725865_a_at) / Fold change /veh EBF3 (11725865_a_at) / RFU CAMK2N1 (11719241_x_at) / Fold change /veh CAMK2N1 (11719241_x_at) / RFU C5orf56 (11738088_a_at) / Fold change /veh C5orf56 (11738088_a_at) / RFU OLFML3 (11715873_a_at) / Fold change /veh OLFML3 (11715873_a_at) / RFU LOC100653217 /// NTM (11731650_a_at) / Fold change /veh LOC100653217 /// NTM (11731650_a_at) / RFU MAPK11 (11762145_a_at) / Fold change /veh MAPK11 (11762145_a_at) / RFU FIZ1 (11724087_x_at) / Fold change /veh FIZ1 (11724087_x_at) / RFU OASL (11726364_x_at) / Fold change /veh OASL (11726364_x_at) / RFU SOX15 (11748057_x_at) / Fold change /veh SOX15 (11748057_x_at) / RFU CD79A (11719716_a_at) / Fold change /veh CD79A (11719716_a_at) / RFU HIST1H1D (11736915_at) / Fold change /veh HIST1H1D (11736915_at) / RFU CASKIN2 (11723855_a_at) / Fold change /veh CASKIN2 (11723855_a_at) / RFU LOC730098 (11760151_x_at) / Fold change /veh LOC730098 (11760151_x_at) / RFU OR4N2 (11742367_at) / Fold change /veh OR4N2 (11742367_at) / RFU PRRT2 (11749266_a_at) / Fold change /veh PRRT2 (11749266_a_at) / RFU SNX32 (11753110_a_at) / Fold change /veh SNX32 (11753110_a_at) / RFU CDHR5 (11726645_a_at) / Fold change /veh CDHR5 (11726645_a_at) / RFU RCAN1 (11760418_a_at) / Fold change /veh RCAN1 (11760418_a_at) / RFU FAM167A (11723789_a_at) / Fold change /veh FAM167A (11723789_a_at) / RFU FAM26E (11764081_at) / Fold change /veh FAM26E (11764081_at) / RFU ISYNA1 (11749810_s_at) / Fold change /veh ISYNA1 (11749810_s_at) / RFU ACY1 (11761880_at) / Fold change /veh ACY1 (11761880_at) / RFU 11764098_at / Fold change /veh 11764098_at / RFU SAMD14 (11745864_x_at) / Fold change /veh SAMD14 (11745864_x_at) / RFU NPB (11741838_a_at) / Fold change /veh NPB (11741838_a_at) / RFU TMPRSS6 (11731388_a_at) / Fold change /veh TMPRSS6 (11731388_a_at) / RFU KRTAP10-2 (11738614_at) / Fold change /veh KRTAP10-2 (11738614_at) / RFU ARHGAP8 /// PRR5-ARHGAP8 (11727945_x_at) / Fold change /veh ARHGAP8 /// PRR5-ARHGAP8 (11727945_x_at) / RFU KRTAP5-7 /// NADSYN1 (11734609_at) / Fold change /veh KRTAP5-7 /// NADSYN1 (11734609_at) / RFU RASL12 (11751679_a_at) / Fold change /veh RASL12 (11751679_a_at) / RFU CDKN2B (11736163_a_at) / Fold change /veh CDKN2B (11736163_a_at) / RFU PRF1 (11729649_at) / Fold change /veh PRF1 (11729649_at) / RFU, ZNF638 /// ZNF638-IT1 / Fold change vs veh, ZNF638 /// ZNF638-IT1 / RFU, PANK3 / Fold change vs veh, PANK3 / RFU, SH3YL1 / Fold change vs veh, SH3YL1 / RFU, ZEB2 / Fold change vs veh, ZEB2 / RFU, NRIP1 / Fold change vs veh, NRIP1 / RFU, PTTG1IP / Fold change vs veh, PTTG1IP / RFU, CAPN2 / Fold change vs veh, CAPN2 / RFU, MED14 / Fold change vs veh, MED14 / RFU, SNORA58 / Fold change vs veh, SNORA58 / RFU, C1orf63 / Fold change vs veh, C1orf63 / RFU, LRRFIP1 / Fold change vs veh, LRRFIP1 / RFU, NDUFAF7 / Fold change vs veh, NDUFAF7 / RFU, SLC12A2 / Fold change vs veh, SLC12A2 / RFU, IBTK / Fold change vs veh, IBTK / RFU, ESF1 / Fold change vs veh, ESF1 / Fold change vs veh, TMEM50B / RFU, TAOK1 / Fold change vs veh, TAOK1 / RFU, ACBD3 / Fold change vs veh, ACBD3 / RFU, TMA16 / Fold change vs veh, TMA16 / RFU, RWDD3 / Fold change vs veh, RWDD3 / RFU, BCAT1 / Fold change vs veh, BCAT1 / RFU, EDEM3 / Fold change vs veh, EDEM3 / RFU, TMEM33 / Fold change vs veh, TMEM33 / RFU, WDR75 / Fold change vs veh, WDR75 / RFU, AHCTF1 / Fold change vs veh, AHCTF1 / RFU, TFRC / Fold change vs veh, TFRC / RFU, ZDHHC17 / Fold change vs veh, ZDHHC17 / RFU, NOM1 / Fold change vs veh, NOM1 / RFU, ARL8B / Fold change vs veh, ARL8B / RFU, ZBTB11 / Fold change vs veh, ZBTB11 / RFU, TAMM41 / Fold change vs veh, TAMM41 / RFU, KIAA1704 /// LOC100996395 / Fold change vs veh, KIAA1704 /// LOC100996395 / RFU, ING1 / Fold change vs veh, ING1 / RFU, TRMT61B / Fold change vs veh, TRMT61B / RFU, FUBP3 / Fold change vs veh, FUBP3 / RFU, TP53 / Fold change vs veh, TP53 / RFU, TNKS2 / Fold change vs veh, TNKS2 / RFU, ZFP14 / Fold change vs veh, ZFP14 / RFU, ACTR2 / Fold change vs veh, ACTR2 / RFU, PPP3R1 / Fold change vs veh, PPP3R1 / RFU, PIK3R1 / Fold change vs veh, PIK3R1 / RFU, HNRNPA1 / Fold change vs veh, HNRNPA1 / RFU, RNF170 / Fold change vs veh, RNF170 / RFU, ZNF28 / Fold change vs veh, ZNF28 / RFU, RNGTT / Fold change vs veh, RNGTT / RFU, OGT / Fold change vs veh, OGT / RFU, BRD1 / Fold change vs veh, BRD1 / RFU, MARS / Fold change vs veh, MARS / RFU, ZNF655 / Fold change vs veh, ZNF655 / RFU, FAHD1 / Fold change vs veh, FAHD1 / RFU, BDP1 / Fold change vs veh, BDP1 / RFU, LRRCC1 / Fold change vs veh, LRRCC1 / RFU, ARID1A / Fold change vs veh, ARID1A / RFU, ZNF146 / Fold change vs veh, ZNF146 / RFU, ZNF330 / Fold change vs veh, ZNF330 / RFU, GPN3 / Fold change vs veh, GPN3 / RFU, C9orf123 / Fold change vs veh, C9orf123 / RFU, N4BP2L2 / Fold change vs veh, N4BP2L2 / RFU, ARFIP1 / Fold change vs veh, ARFIP1 / RFU, FAM179B / Fold change vs veh, FAM179B / RFU, BCL10 / Fold change vs veh, BCL10 / RFU, UHRF1BP1L / Fold change vs veh, UHRF1BP1L / RFU, BET1 / Fold change vs veh, BET1 / RFU, CNOT2 / Fold change vs veh, CNOT2 / RFU, ZNF268 / Fold change vs veh, ZNF268 / Fold change vs veh, ZNF507 / RFU, DGCR2 / Fold change vs veh, DGCR2 / RFU, WDSUB1 / Fold change vs veh, WDSUB1 / Fold change vs veh, HSP90B1 /// MIR3652 / RFU, ADSS / Fold change vs veh, ADSS / RFU, GK / Fold change vs veh, GK / RFU, ZNF148 / Fold change vs veh, ZNF148 / RFU, TAF9 / Fold change vs veh, TAF9 / RFU, SLC1A5 / Fold change vs veh, SLC1A5 / RFU, SLMO2 / Fold change vs veh, SLMO2 / RFU, ABCC4 / Fold change vs veh, ABCC4 / RFU, LOC101060439 /// RAP1B / Fold change vs veh, LOC101060439 /// RAP1B / RFU, RFX7 / Fold change vs veh, RFX7 / RFU, GTPBP10 / Fold change vs veh, GTPBP10 / RFU, CNEP1R1 / Fold change vs veh, CNEP1R1 / RFU, BIVM-ERCC5 /// ERCC5 / Fold change vs veh, BIVM-ERCC5 /// ERCC5 / RFU, ILF3 / Fold change vs veh, ILF3 / RFU 11762660_at / Fold change /veh 11762660_at / RFU VCAN (11757783_s_at) / Fold change /veh VCAN (11757783_s_at) / RFU DDX43 (11728927_at) / Fold change /veh DDX43 (11728927_at) / RFU KRT8 (11758188_x_at) / Fold change /veh KRT8 (11758188_x_at) / RFU NKD1 (11759106_at) / Fold change /veh NKD1 (11759106_at) / RFU SRD5A1 (11742802_a_at) / Fold change /veh SRD5A1 (11742802_a_at) / RFU TPSAB1 /// TPSB2 (11721975_s_at) / Fold change /veh TPSAB1 /// TPSB2 (11721975_s_at) / RFU GSTM3 (11746129_a_at) / Fold change /veh GSTM3 (11746129_a_at) / RFU IL23R (11737362_x_at) / Fold change /veh IL23R (11737362_x_at) / RFU TMEM51 (11727254_a_at) / Fold change /veh TMEM51 (11727254_a_at) / RFU PIWIL2 (11732686_x_at) / Fold change /veh PIWIL2 (11732686_x_at) / RFU ORM1 (11744905_x_at) / Fold change /veh ORM1 (11744905_x_at) / RFU CCDC152 (11743942_at) / Fold change /veh CCDC152 (11743942_at) / RFU ECM1 (11717891_a_at) / Fold change /veh ECM1 (11717891_a_at) / RFU IL23R (11748794_a_at) / Fold change /veh IL23R (11748794_a_at) / RFU TNFAIP8L3 (11732012_x_at) / Fold change /veh TNFAIP8L3 (11732012_x_at) / RFU MBOAT4 (11741988_at) / Fold change /veh MBOAT4 (11741988_at) / RFU 11764193_at / Fold change /veh 11764193_at / RFU TMEM53 (11763286_at) / Fold change /veh TMEM53 (11763286_at) / RFU MAGEB2 (11727129_at) / Fold change /veh MAGEB2 (11727129_at) / RFU TMEM200A (11744735_a_at) / Fold change /veh TMEM200A (11744735_a_at) / RFU CCDC152 (11751479_a_at) / Fold change /veh CCDC152 (11751479_a_at) / RFU FAM211A (11726209_a_at) / Fold change /veh FAM211A (11726209_a_at) / RFU RGS16 (11746705_a_at) / Fold change /veh RGS16 (11746705_a_at) / RFU VCAN (11755009_s_at) / Fold change /veh VCAN (11755009_s_at) / RFU RHOB (11743442_s_at) / Fold change /veh RHOB (11743442_s_at) / RFU RGS16 (11720943_a_at) / Fold change /veh RGS16 (11720943_a_at) / RFU RGS16 (11720944_at) / Fold change /veh RGS16 (11720944_at) / RFU, VPS4B / Fold change vs veh, VPS4B / RFU, CREB1 / Fold change vs veh, CREB1 / RFU, DNAJC13 / Fold change vs veh, DNAJC13 / RFU, GNAQ / Fold change vs veh, GNAQ / RFU, CDK5R1 / Fold change vs veh, CDK5R1 / RFU, ZRANB3 / Fold change vs veh, ZRANB3 / RFU, CUL4A / Fold change vs veh, CUL4A / RFU, CCNY / Fold change vs veh, CCNY / RFU, UFL1 / Fold change vs veh, UFL1 / RFU, COG3 / Fold change vs veh, COG3 / RFU, DIAPH2 / Fold change vs veh, DIAPH2 / RFU, SKA2 / Fold change vs veh, SKA2 / RFU, AFF3 / Fold change vs veh, AFF3 / RFU, LMF1 / Fold change vs veh, LMF1 / RFU, IPO11 / Fold change vs veh, IPO11 / RFU, DFFB / Fold change vs veh, DFFB / RFU, FOXP1 / Fold change vs veh, FOXP1 / RFU, CARD8 / Fold change vs veh, CARD8 / RFU, STRN3 / Fold change vs veh, STRN3 / RFU, ADK / Fold change vs veh, ADK / RFU, RASSF2 / Fold change vs veh, RASSF2 / RFU, WIPF1 / Fold change vs veh, WIPF1 / RFU, LARP1B / Fold change vs veh, LARP1B / RFU, RASA1 / Fold change vs veh, RASA1 / RFU, RB1 / Fold change vs veh, RB1 / RFU, PPFIA1 / Fold change vs veh, PPFIA1 / RFU, MAT2A / Fold change vs veh, MAT2A / RFU, CCT5 / Fold change vs veh, CCT5 / RFU, WDR92 / Fold change vs veh, WDR92 / RFU, CUX1 / Fold change vs veh, CUX1 / RFU, TTC7A / Fold change vs veh, TTC7A / RFU, TMEM135 / Fold change vs veh, TMEM135 / RFU, DEPTOR / Fold change vs veh, DEPTOR / RFU, CPM / Fold change vs veh, CPM / RFU, DNAJB6 / Fold change vs veh, DNAJB6 / RFU, CACNA2D3 / Fold change vs veh, CACNA2D3 / RFU, DTX4 / Fold change vs veh, DTX4 / RFU, TFCP2 / Fold change vs veh, TFCP2 / RFU, GMCL1 /// GMCL1P1 / Fold change vs veh, GMCL1 /// GMCL1P1 / RFU, AEBP2 / Fold change vs veh, AEBP2 / RFU, SNHG1 /// SNORD22 /// SNORD25 /// SNORD26 /// SNORD27 /// SNORD28 /// SNORD29 /// SNORD31 / Fold change vs veh, SNHG1 /// SNORD22 /// SNORD25 /// SNORD26 /// SNORD27 /// SNORD28 /// SNORD29 /// SNORD31 / Fold change (Aza/veh), C12orf56 (ProbeSet 11735607_a_at) / Fold change (ACY-1035/veh), C12orf56 (ProbeSet 11735607_a_at) / Fold change (Aza/veh), FGFR1OP (ProbeSet 11751329_s_at) / Fold change (ACY-1035/veh), FGFR1OP (ProbeSet 11751329_s_at) / Fold change (Aza/veh), VPS36 (ProbeSet 11739960_a_at) / Fold change (ACY-1035/veh), VPS36 (ProbeSet 11739960_a_at) / RFU SYPL1 (11715823_x_at) / Fold change /veh SYPL1 (11715823_x_at) / RFU IGFBP7 (11715501_s_at) / Fold change /veh IGFBP7 (11715501_s_at) / RFU REEP3 (11722064_at) / Fold change /veh REEP3 (11722064_at) / RFU IGLL1 (11728026_x_at) / Fold change /veh IGLL1 (11728026_x_at): dose or concentration left out as unconfirmed
# Conditions: MV-4-11 cells, 48 hours
structure (smiles),measurement,value
Nc1ccc(-c2cccs2)cc1NC(=O)c1ccc2c(c1)cc(C1CC1)n2CCN1CCOCC1 [ACY-1035],RFU GIMAP4 (11747438_a_at),6.21 RFU
